The subject of assay [1] is KLN-205 squamous epithelial syngenic tumour cells. The assay is described as follows: In vivo transfection of KLN-205 tumours in DBA2 mice by local injection of peptide/plasmid complexes (nitroreductase immunostaining). Details: species or system mouse. As to conditions: for ranking by numbers of transfected tumor cells (most to least efficient): 0.5 μg peptide/μg DNA, intratumoural injection. The method, then:
A representative in via cell transfection system is transfection of tumor cells using a murine carcinoma model.
The murine carcinoma model DBA2 containing the squamous epithelial syngenic tumour cell line KLN-205 was prepared as described in the Examples. A transfecting complex was prepared using a solution of plasmid DNA encoding a reporter gene or, for example, nitroreductase and a selected NBC peptide 0.5 μg peptide/μg DNA, as described herein. Where desired, a conjugate peptide was added to the transfecting complex, at a concentration of 0.1-0.3 μg […] peptide/μg DNA.
Transfection efficiency may be determined in a number of ways, including assessing the effect of the reporter gene on the target tissue, or by quantitating the gene product. Below, tissues samples were obtained and nitroreductase gene expression was ascertained via staining of tissue sections.
The ability to transfect tumor cells in vivo in mice was tested using plasmid nucleic acid carrying the nitroreductase reporter gene condensed on each of the following peptides: NBC15, NBC8, NBC9, NBC11, NBC7.
DBA2--male mice, aged 5-10 weeks were injected subcutaneously in each flank with a squamous epithelial syngenic tumour cell line KLN-205. The cell line was grown up in 175 ml T-flasks in standard EMEM medium containing 10% foetal calf serum. When the cells reached a density of 4×10^6 they were suspended by a standard trypsinization technique, washed in PBS and diluted to a final concentration of […].
The anaesthetic was Enflurane (Alynane; Anaquest, Ltd., Windlesham, Surrey UK): Ketamine (10% Ketaset, Willows Francis Veterinary, Cramley, West Sussex, UK); Rompun (2%, Bayer UK, Ltd., Suffolk, UK). For 10 ml anaesthetic mixture: 8.5 ml PBS; 1 ml Ketamine; 0.5 ml Rompun. Each animal was injected intra-peritoneally with 200 μl/animal using 1 ml syringe with 25 gauge needle. Once anaesthetized, the tumour is manipulated between the fingers lifting it slightly away from the animal's body and at the same time apply minimum pressure to the tumour. Using a 0.5 ml insulin needle the formulated delivery vehicle (a plasmid containing the E. coli nitroreductase gene condensed on a peptide at a ratio of 0.5 μg peptide/μg DNA) to be injected is taken up and the tumour is injected horizontally trying to avoid any visible blood vessels and necrotic or abnormal tissue. Daily monitoring is continued until the experiment is terminated.
7μ sections of frozen tumour tissue are prepared using standard methods and a Cryostat and air dried. Sections are fixed with freshly prepared 4% PFA/PBS for 30 mins at room temperature and then washed twice with 0.01% Tween-20/PBS 5 mins each wash. Sections are then immersed in 0.25% hydrogen peroxide/PBS, at room temperature (20C.) for 30 mins, and then washed three times in 0.01% Tween 20/PBS for 5 mins each wash. Sections are then permeabilised by treatment with ice cold 0.1 % TRITON X-100 for 5 mins, followed by a further two washes in 0.01% Tween-20/PBS 5mins each wash. The sections are then blocked with 5% NGS/PBS 60mins at room temperature in a wetbox. After decanting the blocking solution, 0.5 ml diluted antiserum/slide (1:400 in 2.5% NGS) is added and the sections incubated for 60 mins at room temperature. Slides are then washed three times in 0.01% Tween-20/PBS 5 mins each wash. Secondary antibody (0.5 ml) from ABC Elite Vector stain kit is added as follows and incubated 30 mins at room temperature in a wetbox.
The tumour is a murine syngenic squamous carcinoma produced by subcutaneous injection of KLN205 cells. When the tumours were approximately 4 mm in diameter they were injected with 20 μl of plasmid DNA formulated with the NBC15 peptide. After 48 h the tumours were excised and sectioned by standard histological techniques and immunostained for expression of the transgene (E. coli nitroreductase). […] In this case the tumours were injected with the same plasmid formulated in 0.5 μg NBC9 peptide/μg DNA.

Assay [2] concerns Jurkat cell line. The assay is described as follows: In vitro transfection with pRSVLuc (luciferase) condensed on peptides. The class given is cell-based. As to conditions: peptide 2 μg/μg plasmid DNA, luciferase after 24 h, FIG. 7. The method, then:
After incubation the cells are lysed and are assayed for gene expression. In the case of the luciferase reporter gene, luciferin and ATP are added to lysed cells and the light emitted is measured with a luminometer (see deWet et al., supra).
Cell lines such as Jurkat and K562 grow in suspension and can be transfected and the level of transgene expression (luciferase activity) determined b) the following method. Cells are harvested on the day of assay by centrifugation at 1200 rpm for 5 mins at room temperature. The cell pellet is resuspended in phosphate buffered saline and re-centrifuged. This operation is performed twice. […] The cells are then aliquoted into tubes and 0.75 ml of RPMI medium added, followed by 0.04-0.08 ml of 100 mM Chloroquine and finally 0.25 ml of DNA-complex solution. The transfection is then allowed to proceed by incubating the cells at 37° C. for 4 h. After this time the cells are harvested by centrifugation at 2000 rpm. The cells are then suspended in 1 ml of RPMI medium and re-centrifuged. Finally the cells are suspended in 0.5 ml RPMI medium containing 10% foetal bovine serum. Each 0.5 ml of transfected cell suspension is transferred to a well of a 12 well plastic culture plate containing 1.5 ml of RPMI 10% FBS. The original transfection tube is rinsed with a further 1 ml of medium and the wash transferred to the culture dish making a final volume of 3 ml. The culture plate is then incubated at 37° C. for 24-90 h in an atmosphere of 5% CO2. The contents of each well in the culture dish are transferred to centrifuge tubes and the cells collected by centrifugation at 13000 rpm. The pellet is resuspended in 0.12 ml of Lysis Buffer (100 mM sodium phosphate, pH 7.8; 8 mM magnesium chloride, 1 mM EDTA; 1% Triton X-100 and 15% glycerol) and agitated with a pipette. The lysate is centrifuged at 13000 rpm for 1 min and the supernatant collected. 80 μl of the supernatant are transferred to a luminometer tube. The luciferase activity is then assayed using a Berthold Lumat L9501 luminometer. The assay buffer used is Lysis Buffer containing 10 mM Luciferin and 100 mM ATP. Light produced by the luciferase is integrated over 4s and is described as relative light units (RLU). The data are converted to RLU/ml of lysate, RLU/cell or RLU/mg protein (protein concentration of the lysate having been determined in this case by the BioRAD Lowry assay.
In order to compare the relative efficiency of transfection of complexes composed of different NBC condensation peptides or poly-L-lysine, pRSVLuc DNA at a concentration of 100 μg/ml was condensed using peptide at a ratio of 2 μg/μg plasmid DNA as described herein with the following deviation: prior to addition to the cells (Jurkat cell line) the complexes were diluted to 20 μg/ml with 10% PEG 10 000; 37 mM sodium chloride; 25 mM sodium phosphate, pH 7.4. The cells were assayed for luciferase after 24 h.

The test system of assay [3] is cells. The assay can be described thus: Transfection efficiency / activity of complexes (general statement). Type of assay: cell-based. As to conditions: related to affinity for nucleic acid.

Experimental findings from US6218112A, “Optimization of gene delivery and gene delivery system” (Cobra Therapeutics Limited, priority 1997, dated 2001) are described below.

* marks the point of attachment. Acm = CC(=O)NC*

Take “NH2-KKSPKKAKKPAAKKSPKKAKKPAYC(Acm)-COOH (H-KKSPKKAKKPAAKKSPKKAKKPAYC(Acm)-OH; SMILES CC(=O)NCSC[C@H](NC(=O)[C@H](Cc1ccc(O)cc1)NC(=O)[C@H](C)NC(=O)[C@@H]1CCCN1C(=O)[C@H](CCCCN)NC(=O)[C@H](CCCCN)NC(=O)[C@H](C)NC(=O)[C@H](CCCCN)NC(=O)[C@H](CCCCN)NC(=O)[C@@H]1CCCN1C(=O)[C@H](CO)NC(=O)[C@H](CCCCN)NC(=O)[C@H](CCCCN)NC(=O)[C@H](C)NC(=O)[C@H](C)NC(=O)[C@@H]1CCCN1C(=O)[C@H](CCCCN)NC(=O)[C@H](CCCCN)NC(=O)[C@H](C)NC(=O)[C@H](CCCCN)NC(=O)[C@H](CCCCN)NC(=O)[C@@H]1CCCN1C(=O)[C@H](CO)NC(=O)[C@H](CCCCN)NC(=O)[C@@H](N)CCCCN)C(=O)O) [NBC8]”: in assay [1], the “ranking by numbers of transfected tumor cells (most to least efficient)” value is reported as “NBC15>NBC8, NBC9, NBC11>NBC7>>>poly-lysine”. In addition, in assay [1] (in vivo, direct injection, e.g. a tumour), the “transfection efficiency on direct injection within a localized area” value is reported as “optimal transfection efficiency”. In assay [2], the “rank in order of relative transfection efficiency (most to least efficient)” value is “NBC11>NBC13>NBC8>>NBC15>>>polylysine”.

Consider “NH2-TKKAWKKAEKKAAKKCGVSAKKAAKKAWKKA-CONH2 (H-TKKAWKKAEKKAAKKCGVSAKKAAKKAWKKA-NH2) [NBC11]”, for which the transfection efficiency entry in assay [3] was “not completely deleterious to transfection”. For the same substance, the “ranking by numbers of transfected tumor cells (most to least efficient)” value in assay [1] is “NBC15>NBC8, NBC9, NBC11>NBC7>>>poly-lysine”. Further, the “rank in order of relative transfection efficiency (most to least efficient)” value in assay [2] is “NBC11>NBC13>NBC8>>NBC15>>>polylysine”.
